Test results from PMC5603227 (ChemMedChem, 2017).
In brackets after ≈: the same amount, converted by molar mass.

What was measured:
Format in all cases: cell-based, Mycobacterium tuberculosis
[1] = test system: Fluoroquinolone resistant strain derived from H37Rv Mtb, gyrA mutant (D94N)
[2] = test system: Isoniazid resistant strain derived from H37Rv Mtb, katG mutant (Y155*)
[3] = test system: Isoniazid resistant strain ACTCC35822; test: microbe, parasite or virus in culture; conditions: for MIC: Mycobacterium tuberculosis, ACTCC35822, read-out: MIC INH res2
[4] = test system: Rifampicin resistant strain derived from H37Rv Mtb, ropB mutant (S522L)
[5] = test system: Rifampicin resistant strain ACTCC35838; test: microbe, parasite or virus in culture; conditions: for MIC: Mycobacterium tuberculosis, ACTCC35838, read-out: MIC RIF res2

Compound	MIC FQ res [1] [µM]	MIC INH res1 [2] [µM]	MIC [3] [µM]	MIC RIF res1 [4] [µM]	MIC [5] [µM]	MIC INH res2 ([3]; ACTCC35822) [µM]	MIC RIF res2 ([5]; ACTCC35838) [µM]
CCc1nc2ccc(Cl)cn2c1C(=O)NCc1ccc(S(F)(F)(F)(F)F)cc1 [Compound 17, 6-Chloro-2-ethyl-N-(4-(pentafluoro-λ^6-sulfanyl)benzyl)imidazo[1,2-a]pyridine-3-carboxamide]	0.083 (≈ 0.0365 µg/mL)	0.051 (≈ 0.0224 µg/mL)	0.021 (≈ 0.00924 µg/mL)	0.0089 (≈ 0.00391 µg/mL)	0.022 (≈ 0.00968 µg/mL)		
Levoflaxacin [reference compound]	91	3.97		3.43		5.83	3.83
CCc1nc2ccc(Cl)cn2c1C(=O)NCc1cccc(S(F)(F)(F)(F)F)c1 [Compound 18, 6-Chloro-2-ethyl-N-(3-(pentafluoro-λ^6-sulfanyl)benzyl)imidazo[1,2-a]pyridine-3-carboxamide]	2.9 (≈ 1.28 µg/mL)	2.9 (≈ 1.28 µg/mL)	2.7 (≈ 1.19 µg/mL)	1.5 (≈ 0.66 µg/mL)	0.5 (≈ 0.22 µg/mL)		
Cc1ccn2c(C(=O)NCc3cccc(S(F)(F)(F)(F)F)c3)c(C)nc2c1 [Compound 14, 2,7-Dimethyl-N-(3-(pentafluoro-λ^6-sulfanyl)benzyl)imidazo[1,2-a]pyridine-3-carboxamide]	2.5 (≈ 1.01 µg/mL)	3.4 (≈ 1.38 µg/mL)	4 (≈ 1.62 µg/mL)	1.3 (≈ 0.527 µg/mL)	0.13 (≈ 0.0527 µg/mL)		
Cc1cn2c(C(=O)NCc3ccc(S(F)(F)(F)(F)F)cc3)c(C)nc2s1 [Compound 19, 2,6-Dimethyl-N-(4-(pentafluoro-λ^6-sulfanyl)benzyl)imidazo[2,1-b]thiazole-5-carboxamide]	0.33 (≈ 0.136 µg/mL)	0.60 (≈ 0.247 µg/mL)	0.39 (≈ 0.16 µg/mL)	0.26 (≈ 0.107 µg/mL)	0.64 (≈ 0.263 µg/mL)		
Cc1ccc2nc(C)c(C(=O)NCc3ccc(S(F)(F)(F)(F)F)cc3)n2c1 [Compound 15, 2,6-Dimethyl-N-(4-(pentafluoro-λ^6-sulfanyl)benzyl)imidazo[1,2-a]pyridine-3-carboxamide]	0.021 (≈ 0.00851 µg/mL)	0.044 (≈ 0.0178 µg/mL)	0.011 (≈ 0.00446 µg/mL)	0.0060 (≈ 0.00243 µg/mL)	0.016 (≈ 0.00649 µg/mL)		
CO[C@H]1/C=C/O[C@@]2(C)Oc3c(C)c(O)c4c(O)c(c(/C=N/N5CCN(C)CC5)c(O)c4c3C2=O)NC(=O)/C(C)=C\C=C\[C@H](C)[C@H](O)[C@@H](C)[C@@H](O)[C@@H](C)[C@H](OC(C)=O)[C@@H]1C [RIF, Rifampicin, reference compound]	0.043 (≈ 0.0354 µg/mL)	0.027 (≈ 0.0222 µg/mL)	0.013 (≈ 0.0107 µg/mL)	3.2 (≈ 2.63 µg/mL)	> 50		
Cc1ccn2c(C(=O)NCc3ccc(S(F)(F)(F)(F)F)cc3)c(C)nc2c1 [Compound 13, 2,7-Dimethyl-N-(4-(pentafluoro-λ^6-sulfanyl)benzyl)imidazo[1,2-a]pyridine-3-carboxamide]	0.36 (≈ 0.146 µg/mL)	0.070 (≈ 0.0284 µg/mL)	0.24 (≈ 0.0973 µg/mL)	0.079 (≈ 0.032 µg/mL)	0.52 (≈ 0.211 µg/mL)		
NNC(=O)c1ccncc1 [INH, Isoniazid, reference compound]	0.34 (≈ 0.0466 µg/mL)	>200	> 200	0.160 (≈ 0.0219 µg/mL)	0.37 (≈ 0.0507 µg/mL)		
Cc1ccc2nc(C)c(C(=O)NCc3cccc(S(F)(F)(F)(F)F)c3)n2c1 [Compound 16, 2,6-Dimethyl-N-(3-(pentafluoro-λ^6-sulfanyl)benzyl)imidazo[1,2-a]pyridine-3-carboxamide]	2.7 (≈ 1.09 µg/mL)	3.1 (≈ 1.26 µg/mL)	2.4 (≈ 0.973 µg/mL)	0.35 (≈ 0.142 µg/mL)	7.2 (≈ 2.92 µg/mL)		
